Patent US20050043378A1, “LTA4H modulators” (priority 2003, published 2005)
Structures can show the parent of a compound that is named as a salt. Where two headings read alike, the source gives them in different places.

How the values were obtained:
[1] = tested on: LTB4 production by calcium ionophore-stimulated murine blood; experiment: LTB4 production by calcium ionophore-stimulated murine blood for LTA4H inhibitor activity; assay type: cell-based, CD-1 mice
[2] = tested on: neutrophil influx (myeloperoxidase, MPO); experiment: Murine arachidonic acid-induced inflammation model: neutrophil influx (myeloperoxidase activity in ear biopsies); assay type: in vivo, female Balb/c mice; conditions: Mus musculus, read-out: % Inh. MPO
[3] = tested on: ex vivo stimulated LTB4 production in blood; experiment: Murine arachidonic acid-induced inflammation model: ex vivo stimulated LTB4 production; parameters: species or system female Balb/c mice; conditions: Mus musculus, read-out: % Inh. LTB4
[4] = biological target: T1, recombinant human LTA4 hydrolase (rhLTA4H) (Homo sapiens, UniProt P09960); experiment: Recombinant human LTA4 hydrolase assay for LTA4 hydrolase inhibitor activity; assay type: biochemical; conditions: LTA4 substrate, LTB4 by immunoassay, average of one to three determinations;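 further: enzyme expressed in Sf-9 insect cells, compound preincubated 10 min with enzyme, 10 min reaction at room temperature, uninhibited reaction as positive control, enzyme-free blank as negative control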
T1 construct: made in house; host or cells: Spodoptera frugiperda (Sf-9) cells, baculovirus (pFastBac1)
T1 sequence (P09960 1-611): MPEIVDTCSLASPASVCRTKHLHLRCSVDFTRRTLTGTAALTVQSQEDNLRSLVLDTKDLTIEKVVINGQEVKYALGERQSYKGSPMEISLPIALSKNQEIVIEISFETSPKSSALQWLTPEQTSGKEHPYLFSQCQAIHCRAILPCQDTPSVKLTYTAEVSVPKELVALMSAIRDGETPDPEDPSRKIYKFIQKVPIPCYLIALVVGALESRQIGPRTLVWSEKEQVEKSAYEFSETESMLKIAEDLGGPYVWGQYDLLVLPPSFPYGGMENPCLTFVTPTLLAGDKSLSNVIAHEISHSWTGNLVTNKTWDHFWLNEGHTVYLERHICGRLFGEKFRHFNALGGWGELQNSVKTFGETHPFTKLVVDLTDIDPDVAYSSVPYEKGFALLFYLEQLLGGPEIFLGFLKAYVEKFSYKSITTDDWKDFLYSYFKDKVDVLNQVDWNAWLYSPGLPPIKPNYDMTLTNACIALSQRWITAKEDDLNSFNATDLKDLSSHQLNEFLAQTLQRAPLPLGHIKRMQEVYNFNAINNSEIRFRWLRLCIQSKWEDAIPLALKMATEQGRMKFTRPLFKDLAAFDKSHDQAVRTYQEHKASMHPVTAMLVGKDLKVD

[5] = tested on: ionophore-induced LTB4 production in mouse blood; conditions: oral administration; cited from earlier work
[6] = tested on: ionophore-induced LTB4 production in rat peritoneum; conditions: oral administration; cited from earlier work
colitis symptoms = conditions: eight weeks of treatment, cotton top tamarins; cited from earlier work
[7] = diluted CD-1 mouse whole blood, A23187 stimulation, LTB4 by immunoassay, read-out: IC50
[8] = 30 mg/kg oral gavage 60 min before topical arachidonic acid to ear, ear biopsies after 3 h, vs animals without inhibitor
[9] = 30 mg/kg oral gavage, blood taken 3 h after arachidonic acid, ex vivo A23187 stimulation, vs animals without inhibitor

SMILES | IC50 [1, 7] [nM] | IC50 [4] [nM] | inhibition in vivo at 30 mg/kg [2, 8] [%] | inhibition at 30 mg/kg [3, 9] [%] | IC50 ([1]; Mus musculus) [nM] | inhibition in vivo at 30 mg/kg ([2]; po, 3 h) [%] | inhibition at 30 mg/kg ([3]; po, 3 h) [%] | inhibition of ionophore-induced LTB4 production in mouse blood ex vivo [5] | inhibition of ionophore-induced LTB4 production in rat peritoneum in vivo [6] | colitis symptoms (colitis symptoms)
OC1CCN(CCOc2ccc(Oc3nc4ccccc4o3)cc2)CC1 [Example 14, 1-{2-[4-(Benzooxazol-2-yloxy)-phenoxy]-ethyl}-piperidin-4-ol] |  |  | 56 | 81 | 89 |  |  |  |  | 
O=C(O)C1CCN(CCc2ccc(Oc3nc4ccccc4s3)cc2)CC1 [Example 150, 1-{2-[4-(Benzothiazol-2-yloxy)-phenyl]-ethyl}-piperidine-4-carboxylic acid] | 52 | 1 | 91 | 81 |  |  |  |  |  | 
O=C(O)C1CCN(Cc2ccc(Oc3nc4ccccc4s3)cc2)CC1 [Example 250, 1-[4-(Benzothiazol-2-yloxy)-benzyl]-piperidine-4-carboxylic acid] |  |  | 94 | 80 |  |  |  |  |  | 
O=C(O)C1CCN(CCOc2ccc(Oc3nc4ccccc4s3)cc2)CC1 [Example 18, 1-{2-[4-(Benzothiazol-2-yloxy)-phenoxy]-ethyl}-piperidine-4-carboxylic acid potassium salt] |  | 6 |  |  | 162 | 83 | 78 |  |  | 
CN(CCCOc1ccc(Cc2ccccc2)cc1)CCC(=O)O.Cl [SC57461] |  |  |  |  |  |  |  | caused inhibition of ionophore-induced LTB4 production | caused inhibition of ionophore-induced LTB4 production | significantly improved colitis symptoms
O=C(O)C1CCCN(CCc2ccc(Oc3nc4ccccc4s3)cc2)C1 (stereo not drawn) [Example 155, 1-{2-[4-(Benzothiazol-2-yloxy)-phenyl]-ethyl}-piperidine-3-carboxylic acid] | 127 | 9 | 93 | 96 |  |  |  |  |  | 
NC(=O)C1CCN(Cc2ccc(Oc3nc4ccccc4s3)cc2)CC1 [Example 274, 1-[4-(Benzothiazol-2-yloxy)-benzyl]-piperidine-4-carboxylic acid amide] |  |  | 87 | 93 |  |  |  |  |  | 
O=C(O)CCN(CCc1ccc(Oc2nc3ccccc3s2)cc1)CC1CC1 [Example 180, 3-({2-[4-(Benzothiazol-2-yloxy)-phenyl]-ethyl}-cyclopropylmethyl-amino)-propionic acid] | 15 | 2 | 87 | 87 |  |  |  |  |  | 
OC1(c2ccccc2)CCN(CCCOc2ccc(Oc3nc4ccccc4o3)cc2)CC1 [Example 27, 1-{3-[4-(Benzooxazol-2-yloxy)-phenoxy]-propyl}-4-phenyl-piperidin-4-ol] |  | 7 | 72 |  | 143 |  | 50 |  |  | 

More lines, main results first:

IC50 [1, 7] [nM] | IC50 [4] [nM] | SMILES | inhibition in vivo at 30 mg/kg [2, 8] [%] | inhibition at 30 mg/kg [3, 9] [%] | IC50 ([1]; Mus musculus) [nM] | inhibition in vivo at 30 mg/kg ([2]; po, 3 h) [%] | inhibition at 30 mg/kg ([3]; po, 3 h) [%] | inhibition of ionophore-induced LTB4 production in mouse blood ex vivo [5] | inhibition of ionophore-induced LTB4 production in rat peritoneum in vivo [6] | colitis symptoms (colitis symptoms)
43 | 4 | c1ccc2sc(Oc3ccc(OCCn4nnnc4C4CCNCC4)cc3)nc2c1 [Example 206, 2-{4-[2-(5-Piperidin-4-yl-tetrazol-1-yl)-ethoxy]-phenoxy}-benzothiazole] | 76 | 67 |  |  |  |  |  | 
 | 12 | O=C(CO)N1CCN(CCc2ccc(Oc3nc4ccccc4s3)cc2)CC1 [Example 325, 1-(4-{2-[4-(Benzothiazol-2-yloxy)-phenyl]-ethyl}-piperazin-1-yl)-2-hydroxy-ethanone] | 67 | 76 |  |  |  |  |  | 
131 | 8 | O=C1C[C@@H](O)CN1C1CCN(Cc2ccc(Oc3nc4ccccc4s3)cc2)CC1 [Example 446, 1-{1-[4-(Benzothiazol-2-yloxy)-benzyl]-piperidin-4-yl}-4-hydroxy-pyrrolidin-2-one] | 43 | 64 |  |  |  |  |  | 
 | 8 | CS(=O)(=O)NC1CCN(Cc2ccc(Oc3nc4ccccc4s3)cc2)CC1 [Example 361, N-{1-[4-(Benzothiazol-2-yloxy)-benzyl]-piperidin-4-yl}-methanesulfonamide] | 90 | 86 |  |  |  |  |  | 
49 | 5 | OCC1CCCCN1CCOc1ccc(Oc2nc3ccccc3s2)cc1 (stereo not drawn) [Example 263, (1-{2-[4-(Benzothiazol-2-yloxy)-phenoxy]-ethyl}-piperidin-2-yl)-methanol] | 19 | 0 |  |  |  |  |  | 
246 | 33 | OCC1CCN(Cc2ccc(Oc3nc4ccccc4s3)cc2)CC1 [Example 360, {1-[4-(Benzothiazol-2-yloxy)-benzyl]-piperidin-4-yl}-methanol] | 88 | 87 |  |  |  |  |  | 
153 | 24 | O=C1C[C@H](O)CN1C1CCN(CCc2ccc(Oc3nc4ccccc4s3)cc2)CC1 [Example 336, (S)-1-(1-{2-[4-(Benzothiazol-2-yloxy)-phenyl]-ethyl}-piperidin-4-yl)-4-hydroxy-pyrrolidin-2-one] | 0 | 67 |  |  |  |  |  | 
 | 19 | CC(=O)N(C)C1CCN(Cc2ccc(Oc3nc4ccccc4s3)cc2)CC1 [Example 471, N-{1-[4-(Benzothiazol-2-yloxy)-benzyl]-piperidin-4-yl}-N-methyl-acetamide] | 89 | 90 |  |  |  |  |  | 
240 | 28 | O=C1C[C@H](O)CN1C1CCN(Cc2ccc(Oc3nc4ccccc4s3)cc2)CC1 [Example 447, 1-{1-[4-(Benzothiazol-2-yloxy)-benzyl]-piperidin-4-yl}-4-hydroxy-pyrrolidin-2-one] | 48 | 90 |  |  |  |  |  | 
